Measured values published in PMC3965853 (Cancer chemotherapy and pharmacology, 2014).
Values joined by “and” are separate entries in the source; they are usually repeats but may differ in a detail not shown here. Equal values may be shown once. “Also recorded” adds a separate entry of the source.

What was measured:
[1] = Topotecan pharmacokinetics in plasma and urine without and with erlotinib; format: in vivo, patients; conditions: for CLrenal, Mean (SD) / CLrenal, Median / CLrenal, Range / CL, Mean (SD) / CL, Median / CL, Range / Dosage-normalized AUC, Range: total topotecan; for CLrenal, Mean (SD) / CLrenal, Median / CLrenal, Range: n 13; for CL, Mean (SD) / CL, Median / CL, Range / Dosage-normalized AUC, Range: n 19
[2] = system: platinum refractory/resistant ovarian cancer; conditions: lapatinib in combination with topotecan, group of 18 patients; cited from earlier work
[3] = system: relapsed/refractory ovarian cancer; conditions: topotecan and lapatinib, 35 patients evaluable; cited from earlier work
[4] = system: refractory solid tumors; experiment: Antitumor response assessment; format: in vivo, patients
[5] = 30 min iv infusion days 1 to 5 of 21-day cycle, with 150 mg oral erlotinib daily
[6] = all patients n = 28, topotecan + erlotinib 150 mg
[7] = topotecan 0.75 mg/m^2 + erlotinib 150 mg, n = 8
[8] = topotecan 1.0 mg/m^2 + erlotinib 150 mg, n = 14
[9] = topotecan 1.25 mg/m^2 + erlotinib 150 mg, n = 6

## C#Cc1cccc(Nc2ncnc3cc(OCCOC)c(OCCOC)cc23)c1 [erlotinib]
[1]; erlotinib 150 mg daily, oral
  effect of erlotinib on topotecan clearance / disposition: does not affect the disposition of topotecan to a clinically significant extent; also recorded: did not have a clinically significant effect on topotecan clearance or exposure; also recorded: no significant effect on topotecan systemic clearance

## CS(=O)(=O)CCNCc1ccc(-c2ccc3ncnc(Nc4ccc(OCc5cccc(F)c5)c(Cl)c4)c3c2)o1 [lapatinib]
[2]
  partial response, patients: One partial response
  patients deriving clinical benefit: three patients
[3]
  disease stabilization, patients: 12
  partial response, patients: Five patients

## CC[C@@]1(O)C(=O)OCc2c1cc1n(c2=O)Cc2cc3c(CN(C)C)c(O)ccc3nc2-1 [topotecan]
[1]; Cycle 1 (without erlotinib)
  CLrenal, Mean (SD): 4.95 (2.38) L/h/m^2
  CLrenal, Median: 4.61 L/h/m^2
  CLrenal, Range: 1.29–9.12 L/h/m^2
  CL, Mean (SD): 9.41 (3.40) L/h/m^2
  CL, Median: 8.55 L/h/m^2
  CL, Range: 4.11–14.7 L/h/m^2
  Dosage-normalized AUC, Range: 35.1 to 142 ng·h/mL
[1]; Cycle 2/3 (with erlotinib)
  CLrenal, Mean (SD): 4.07 (1.87) L/h/m^2
  CLrenal, Median: 3.84 L/h/m^2
  CLrenal, Range: 1.04–7.04 L/h/m^2
  CL, Mean (SD): 8.60 (3.04) L/h/m^2
  CL, Median: 8.57 L/h/m^2
  CL, Range: 3.56–14.6 L/h/m^2
  Dosage-normalized AUC, Range: 51.4 to 237.2 ng·h/mL
[1]; with erlotinib vs without, p = 0.17
  mean (terminal) clearance of topotecan, lower in Cycle 2/3 compared to Cycle 1: 8.6%
[1]; with erlotinib vs without, p = 0.21
  mean renal clearance of topotecan, decrease in Cycle 2/3 compared to Cycle 1: 17.8%
[1]; with erlotinib vs without, p = 0.45
  mean dosage-normalized AUC of topotecan, higher in Cycle 2/3 than in Cycle 1: 8.0%
[4]; [6]
  Best overall response: Complete response, % of patients: 0%
  Best overall response: Not evaluable, % of patients: 21.4%
  Best overall response: Not evaluable, No. of Patients: 6
  Best overall response: Partial response, % of patients: 7% and 7.1%
  Best overall response: Progressive disease, % of patients: 29% and 28.6%
  Best overall response: Progressive disease, No. of Patients: 8
  Best overall response: Stable disease, % of patients: 42.9%
  Best overall response: Stable disease, No. of Patients: 12
[4]; [7]
  Best overall response: Complete response, No. of Patients: 0
  Best overall response: Not evaluable, No. of Patients: 1
  Best overall response: Partial response, No. of Patients: 0
  Best overall response: Progressive disease, No. of Patients: 4
  Best overall response: Stable disease, No. of Patients: 3
[4]; [8]
  Best overall response: Complete response, No. of Patients: 0
  Best overall response: Not evaluable, No. of Patients: 4
  Best overall response: Partial response, No. of Patients: 1
  Best overall response: Progressive disease, No. of Patients: 4
  Best overall response: Stable disease, No. of Patients: 5
[4]; [9]
  Best overall response: Complete response, No. of Patients: 0
  Best overall response: Not evaluable, No. of Patients: 1
  Best overall response: Partial response, No. of Patients: 1
  Best overall response: Progressive disease, No. of Patients: 0
  Best overall response: Stable disease, No. of Patients: 4
[5]
  maximum tolerated dosage (MTD) of topotecan: 1.0 mg/m^2
